Data as given in patent US20130150430A1, “Methods for Impairing the P53/HDM2 Auto-Regulatory Loop in Multiple Myeloma Development Using mIR-192, mIR-194 and mIR-215” (THE OHIO STATE UNIVERSITY, priority 2011, published 2013).

How the values were obtained:
Assay type in all cases: cell-based, human
[1] = tested on: MM cells carrying WT TP53 (MM1s, NCI-H929, KMS28BM); assay: MTS cell viability assay after miRNA transfection; settings: transfected cells vs scrambled sequences, 24, 48, 72 hrs after transfection
Source text: (§1) FIG. 3A, FIG. 3B, FIG. 3C, FIG. 3D: MTS assay performed in MM1s (FIG. 3A), NCI-929 (FIG. 3B), KMS28BM (FIG. 3C) and RPMI-8226 (FIG. 3D) cell lines. Cells were transfected with miR-192, miR-215 and scrambled sequence (Scr) and were harvested at 24, 48, and 72 hrs after transfection. P values are indicated.
(§2) CD-138+ PCs obtained from new diagnosed MM subjects and isolated as previously described were transfected by using nucleoporation (LONZA) Cell Line Nucleofector Kit V (Cat#VCA-1003). MM1s, NCI-H929 cell lines were transfected by using nucleoporation (LONZA) Cell Line Nucleofector Kit V (Cat#VCA-1003). Instead for U266, KMS-28BM and RPMI-8226 Cell Line Nucleofector Kit C (Cat#VCA-1004) was used. Specifically for primary cells 1×10^6 CD-138+ PCs were resuspended in […] of V solution and 100 nM miRNA precursors (Ambion) was used for the transfection reaction. For MM cell lines 5×10^6 cells were re-suspended in 100 μl of nucleofector solution V/C and 100 nM of miRNAs precursor or 100 nM LNA miRNA antisense oligonucleotides (Ambion) was used for each transfection point. Protein lysates and total RNA were collected at the time indicated. miRNA processing and expression were verified by northern blot and stem-loop qRT-PCR.
(§3) Cells were plated in 96-well plates in triplicate and incubated at 37° C. in a 5% CO2 incubator. Cell viability was examined with 3-(4,5-dimethylthiazol-2-yl)-2,5-dipheniltetrazolium bromide (MTT)-Cell Titer 96AQueous One Solution Cell Proliferation Assay (Promega), according to the manufacturer's protocol. Metabolically active cells were detected by adding 20 μl of MTT to each well. After 1 hr incubation, the plates were analyzed in a Multi label Counter (Bio-Rad Laboratories). Apoptosis was assessed using Annexin V-FITC apoptosis detection kits followed by flow cytometric analysis. For Annexin V staining, MM cells (pre-miRNAs pool or Scrambled transfected) were treated with MI-219 at different concentrations (0, 2.5, 5.0, 10 μM) for 24 hr and then treated as for DNA content analysis, except that fixation was omitted and the Cells (5×10^5 per sample) were resuspended in PBS containing 25 μg/ml Annexin-V-FLUOS (Roche Applied Science) and 50 μg/ml PI prior to FACS analysis. The percentage of apoptosis indicated was corrected for background levels found in the corresponding untreated controls. The percentage of apoptotic cells was expressed as the mean±SD of three experiments.

[2] = tested on: RPMI-8226 cells expressing mutant TP53; assay: MTS cell viability assay after miRNA transfection; settings: transfected RPMI-8226 cells
Source text: as §1, §2, §3

[3] = tested on: HDM2 3′UTR; assay: Luciferase reporter assay, pGL3-MDM2-3'UTR; settings: MM1s cells, construct containing all MREs
Protocol: FIG. 4G: miRNAs predicted to interact with HDM2 gene in several consensus binding sites (x) at its 3′-UTR, according to “in silico” RNA-22 prediction software. Luciferase assay showing decreased luciferase activity in cells co-transfected with pGL3-MDM2-3′UTR and miR-192, miR-194, miR-215 and Scr sequence. See also FIG. 18. All experiments were performed in triplicate ±SD.
To verify that HDM2 is a direct target of miR-192, miR-194 and miR-215, HDM2 3′UTR containing all MREs (˜4K), was cloned into pGL3 basic construct downstream of the luciferase open reading frame (FIG. 4D). This reporter construct was used to transfect the highly transfectable MM1s cells that express the endogenous miRs following up-modulated p53 expression.
MM1s cells were cotransfected with 1 μg of pGL3 firefly luciferase reporter vector, 0.1 μg of the phRL-SV40 control vector (Promega), and 100 nM miRNA precursors (Ambion) using nucleoporation (LONZA) Cell Line Nucleofector Kit V. Firefly and Renilla luciferase activities were measured consecutively by using the Dual Luciferase Assay (Promega) 24 hr after transfection. Each reporter plasmid was transfected at least twice (on different days) and each sample was assayed in triplicate. […]

[4] = tested on: MM1s cells; assay: Caspase-3 activation assay with MI-219 in miRNA-transfected cells; settings: MI-219 in presence of the miRNA; p<0.001
Protocol: FIG. 5C: Apoptotic effect at different concentrations and time points for each miRNA transfected cells was assessed by caspase-3 activation assay.
Nocodazole was (Sigma-Aldrich) was dissolved in DMSO as a stock solution of 10 mg/ml for cell cycle arrest in G2/M phase. Cells were first arrested and synchronized in G2/M phase by growth in 80 nM nocodazole for 16 hr. Cells were then washed and fresh medium added. After 6 hr, cell cycle analysis was performed by propidium iodide staining. Corresponding amounts of DMSO alone were added in control experiments. In experiments involving transfection and MI-219 treatment, the cells were first transfected, incubated for 24 hr, and then treated with the chemotherapeutic drug for 24 hr. For DNA content analysis, cells were fixed in methanol at −20° C., washed again, rehydrated, re-suspended in PBS containing 50 μg/ml propidium iodide (PI) and 50 μg/ml RNase A, and analyzed by flow cytometry (Becton Dickinson). For detection of caspase 3 activity, KMS28BM and MM1s cells were cultured in 96-well plates and treated with Nutlin-3a. After the treatment the cells were analyzed using Caspase-Glo 3 Assay kit (Promega) according to the manufacturer's instructions. Continuous variables were expressed as mean values ± standard deviation (s.d.).

| Substance | growth arrest (MTS assay) [1] | growth arrest (MTS assay) [2] | luciferase expression of HDM2 3′UTR reporter [3] | caspase-3 activation induced by MI-219 [4] |
| --- | --- | --- | --- | --- |
| miR-192: microRNA, p53-activated, down-regulated in MM; transfected as miRNA precursor (Ambion) or lentivector; SEQ ID NO:56 (CUGACCUAUGAAUUGACAGCC; listed as RNA, chemistry not given here; listed as Homo sapiens) | significant growth arrest | did not detect this effect | significantly diminished | higher caspase-3 activation |
| miR-215: microRNA, p53-activated, down-regulated in MM; transfected as miRNA precursor (Ambion) or lentivector; SEQ ID NO:58 (AUGACCUAUGAAUUGACAGAC; listed as RNA, chemistry not given here; listed as Homo sapiens) | significant growth arrest | did not detect this effect | significantly diminished | higher caspase-3 activation |
